Target: T1, KGA_ H519Q/D520K (Homo sapiens, UniProt O94925, D520K/H519Q)
T1 construct: a KGA cDNA fragment of 1644 bp (residues Leu123-Leu669); His-tag (N); made in house; host or cells: Escherichia coli
T1 sequence (O94925 123-669 H519Q/D520K): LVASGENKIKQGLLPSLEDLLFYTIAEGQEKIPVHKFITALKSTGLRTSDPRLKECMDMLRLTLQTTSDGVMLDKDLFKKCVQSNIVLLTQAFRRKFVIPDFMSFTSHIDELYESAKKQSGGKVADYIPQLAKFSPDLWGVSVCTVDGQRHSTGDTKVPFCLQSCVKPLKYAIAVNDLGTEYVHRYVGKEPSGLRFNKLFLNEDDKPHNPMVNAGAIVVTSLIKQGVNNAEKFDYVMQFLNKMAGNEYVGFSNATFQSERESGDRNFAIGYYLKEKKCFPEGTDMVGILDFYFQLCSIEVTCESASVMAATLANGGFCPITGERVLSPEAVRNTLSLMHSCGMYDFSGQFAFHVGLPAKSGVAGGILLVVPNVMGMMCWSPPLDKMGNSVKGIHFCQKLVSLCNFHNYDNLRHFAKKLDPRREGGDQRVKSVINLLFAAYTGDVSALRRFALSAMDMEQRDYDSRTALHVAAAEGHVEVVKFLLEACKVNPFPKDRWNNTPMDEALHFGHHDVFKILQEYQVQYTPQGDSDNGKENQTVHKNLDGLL
Assay: Glutaminase activity assay, KGA mutant H519Q/D520K
Assay type: biochemical
Experimental: Human glutaminase activity was measured using a two-step assay as described previously. A microtiter assay format was used to facilitate the collection of multiple data points. Typically, 10 μl of compound, which was dissolved in DMSO, was added to 80 μl of an initial assay mix (0.1 mM hKGA, 0.2 mM EDTA and 50 mM Tris/acetate, pH 8.6). Samples were incubated at 25°C for 10 min and then 10 μl of 200 mM glutamine were added to the reaction mix. After adding glutamine, the reactions were incubated at 37°C for 60 min and then quenched by the addition of 10 μl of 0.6 M HCl. Subsequently, 100 μl of a second reaction mixture (3.7 units of purified bovine liver glutamate dehydrogenase, 160 mM Tris/acetate [pH 9.4], 400 mM hydrazine, 5 mM ADP and 2 mM NAD^+) was added to the stopped first reaction mixture and incubated for 30 min at 25°C. The absorbance at 340 nm was measured using a Wallac Victor2V plate reader (PerkinElmer), fitted with a 340 nm excitation filter. Sample absorbance was measured against a blank, containing no human glutaminase.
Site-directed mutagenesis was performed on the pET28a(+)-GAB or pET28a(+)-KGA plasmids using PfuUltra II Fusion HS DNA polymerase (Agilent Technologies) to create the GAB and KGA mutants. […] The sequence alignment was compared with crystal structure of the GAC (PDB code: 3UO9) and the resulting model of GAB was analyzed using the Swiss-PDB server. […]

IC50: 0.23 ± 0.03 µM
Compound: CCCCCCCCCCCCCC(CC1=CC(=O)C=C(OC)C1=O)OC(C)=O (stereo not shown) [AV-1]

Source: paper PMC4171615, “Discovery of selective inhibitors of Glutaminase-2, which inhibit mTORC1, activate autophagy and inhibit proliferation in cancer cells” (Oncotarget, 2014)
